How the values were obtained:
[1] = system: platinum-resistant ovarian cancer, primary peritoneal carcinoma, or fallopian tube carcinoma; assay: Randomized trial of gemcitabine + pertuzumab vs gemcitabine + placebo, PFS and OS by qRT-PCR HER3 (Examples 1 and 4); assay type: in vivo, human
Source text: Patients who had progressed while receiving, or within 6 months of receiving, a platinum-based chemotherapy regimen were eligible for this study. Patients were randomized to receive either gemcitabine in combination with pertuzumab, or gemcitabine in combination with placebo. Patients treated herein included those who had not received a previous salvage regimen treatment for platinum-resistant disease prior to study entry, and those who had received one prior regimen for platinum-resistant disease. Gemcitabine was administered at 1000 mg/m^2 on days 1 and 8 of each 21 day cycle. Gemcitabine was infused first over 30 minutes. Dose reductions were permitted for toxicity. […] Subjects without progressive disease received treatment for up to 17 cycles, or 1 year. Patients had standard gemcitabine dose reduction and held doses as a result of cytopenias. […] Subsequent doses were at the reduced doses and were not increased. If dose reduction or holding a dose was required in more than 4 occasions, or if doses were held for more than 3 weeks, then gemcitabine was discontinued and with the approval of the treating physician and medical monitor, blinded drug was continued until disease progression. If Day 8 gemcitabine doses were held, then the Day 8 dose was omitted and the subsequent treatment was commenced with the next cycle (Day 22 of the previous cycle). Response was assessed at the end of Cycles 2, 4, 6, 8, 12 and 17. Measurable disease was assessed using the Response Evaluation Criteria for Solid Tumors (RECIST), by clinical evaluation and CT scan or equivalent. Response for subjects with evaluable disease was assessed according to changes to CA-125 and clinical and radiologic evidence of disease. Responses were confirmed 4-8 weeks after the initial documentation of response. The following outcome measures were assessed. Progression free survival, as determined by investigator assessment using RECIST or CA-125 changes, following initiation of assigned study treatment of all subjects in each arm. Formalin-fixed, paraffin embedded tissue (FFPET) samples obtained from the patients in this clinical trial were analyzed for EGFR, HER2, HER3, two HER ligands (amphiregulin and betacellulin), and G6PDH (a housekeeping gene) by qRT-PCR. The qRT-PCR assay was performed by TARGOS Molecular Pathology GmbH (Kassel, Germany) using Roche Diagnostic's lab lot kits. The workflow and analysis for performing the qRT-PCR assay on the clinical samples are depicted in FIGS. 27 and 28 herein. The efficacy results were assessed at 7.1 months median follow-up (range 1.3-20.3). There were 101 progression free survival (PFS) events at that time. […] P-values were estimated using stratified Cox model and stratified log-rank test by randomization stratification factors (ECOG PS, number of prior regimens for platinum resistant disease, and disease measurability). Patients with CDDP-R EOC were randomized to G+P or G+placebo. Treatment was given until progression or until unacceptable toxicity. The primary endpoint was PFS. A secondary objective was to evaluate efficacy outcomes in patients with HER2 activation-related expression profiles. A qRT-PCR assay using archival formalin-fixed paraffin-embedded tissue (FFPET), preformed as described above, allowed mRNA expression analysis of HER pathway genes, including HER1, HER2, HER3, amphiregulin, and betacellulin. Outcomes were described by low gene expression (<median) and by high gene expression (≧median).

[2] = system: incurable, locally advanced, recurrent or metastatic solid tumors; conditions: cited from earlier work
[3] = system: platinum-sensitive recurrent ovarian cancer; assay: Randomized open-label Phase II study of pertuzumab with carboplatin-based standard chemotherapy (Example 3); assay type: in vivo, human; conditions: FIGS. 32-35
Source text: In this randomized, open-label Phase II clinical study, the efficacy and safety of pertuzumab treatment in combination with carboplatin-based standard chemotherapy was investigated in patients with platinum-sensitive recurrent ovarian cancer. The target sample size is 100-500 individuals. Target sample size is 148. Inclusion Criteria: • histologically confirmed ovarian, primary peritoneal, or fallopian tube cancer; • only 1 previous regimen, which must be platinum-based; • platinum-sensitive disease which is defined by a progression-free interval of greater than 6 months after completion of platinum-based chemotherapy. Exclusion Criteria: • previous radiotherapy; • previous treatment with an anti-cancer vaccine or any targeted therapy; • major surgery or traumatic injury within 4 weeks of study; • history or evidence of central nervous system metastases.

[4] = system: advanced, refractory, or recurrent ovarian cancer; assay: Single arm phase II trial of single agent pertuzumab, PFS and OS by HER3 qRT-PCR (Example 2); assay type: in vivo, human; conditions: for median survival: single agent pertuzumab, FIG. 25
Experimental: This example concerns a single arm, open label, multicenter phase II clinical trial of ovarian cancer patients. […] Tumor assessments were obtained after 2, 4, 6, 8, 12 and 16 cycles. Response Rate (RR) by RECIST was the primary endpoint. Safety and tolerability were additionally evaluated. Secondary endpoints were TTP, duration of response, duration of survival, pharmacokinetics (PK), and FOSI (cohort 2). qRT-PCR assays were performed on archived formalin fixed paraffin embedded tissue. Assay data is available for 46/117 patients. Here high HER3 expressors were in the greater than and equal to 75th percentile, while low HER3 expressors were in the less than 75th percentile.

[5] = in vivo; cited from earlier work

| Compound | OS (median months) ([1]; All Patients (n = 130)) | PFS (median months) ([1]; All Patients (n = 130)) | OS (median months) ([1]; High HER3 (N = 61), ≧median) | PFS (median months) ([1]; High HER3 (N = 61), ≧median) | OS (median months) ([1]; Low HER3 (N = 61), <median) | PFS (median months) ([1]; Low HER3 (N = 61), <median) | pertuzumab activity (PFS) by HER3 expression ([1]; qRT-PCR HER3 cutoffs, FIGS. 14-15) | tolerability ([2]; in vivo, iv) | Tumor regression ([2]; patients evaluable for response, pertuzumab IV every 3 weeks) | confirmed partial responses ([2]; pertuzumab IV every 3 weeks) | pertuzumab activity (PFS) by HER2:HER3 expression [3] | pertuzumab activity (PFS) by HER3 expression [3] | median survival ([4]; high HER3 expressing patients (greater than and equal to 75th percentile)) | median survival ([4]; low HER3 expressing patients (less than 75th percentile)) | outcomes in terms of PFS and OS by HER3 expression ([4]; patients with low HER3 expression vs high) | mean clearance [5] | mean terminal elimination half-life [5] |
| --- | --- | --- | --- | --- | --- | --- | --- | --- | --- | --- | --- | --- | --- | --- | --- | --- | --- |
| Cl.Nc1ccn([C@@H]2O[C@H](CO)[C@@H](O)C2(F)F)c(=O)n1 (single isomer, unassigned) [G + Placebo, 2′-deoxy-2′,2′-difluorocytidine monohydrochloride (b-isomer)] | 13.1 months | 2.6 months | 18.2 months | 5.5 months | 8.4 months | 1.4 months |  |  |  |  |  |  |  |  |  |  |  |
| pertuzumab: humanized HER2 antibody, HER dimerization inhibitor, comprising light and heavy chain amino acid sequences in SEQ ID NOS. 13 and 14 |  |  |  |  |  |  | greatest in patients with HER3 low expressing tumors | generally well tolerated | 3 of 20 | Two | greatest in patients with high HER2:HER3 expressing cancer | greatest in patients with HER3 low expressing cancer | 1.80 years | 3.31 years | better outcomes in terms of PFS and OS | 2.69 to 3.74 mL/day/kg | 15.3 to 27.6 days |

Reference: patent publication US8940302B2, “Predicting response to a HER inhibitor” (Genentech, Inc., priority 2007, dated 2015)
